Experimental data from publication PMC4257840 (Journal of Medicinal Chemistry, 2014).
Read-outs that look alike come from different tables or passages of the source.

Assays:
Der p 1 = biological target: T1, Der p 1 (Dermatophagoides pteronyssinus, UniProt P08176); assay: biochemical; format: biochemical
T1 sequence (P08176 99-320): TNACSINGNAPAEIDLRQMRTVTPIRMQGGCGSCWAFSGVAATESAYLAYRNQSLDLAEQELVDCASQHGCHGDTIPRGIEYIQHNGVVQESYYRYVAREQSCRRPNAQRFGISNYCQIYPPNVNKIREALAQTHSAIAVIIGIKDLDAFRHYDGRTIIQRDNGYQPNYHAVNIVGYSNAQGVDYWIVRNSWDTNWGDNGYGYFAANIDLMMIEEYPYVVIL
Experimental: Automated screening of inhibitory activity toward group 1 HDM peptidase allergens was performed as described elsewhere[25],[43] with the minor modification that Der p 1 or Der f 1 were incubated with inhibitors for 20 min prior to initiation of reactions by addition of substrate. In initial screening, the activity of each compound was measured using a series of 10 doubling dilutions from a starting concentration of 50 μM. […] Assays were performed in triplicate for calculation of mean ± SE IC50 values.

human liver Cat B = human liver Cat B (Homo sapiens, UniProt P07858); assay: Cathepsin B inhibition assay; conditions: for IC50: read-out: Cat B IC50, mean ± SE
Experimental: Inhibition of Cat B was measured as described with modifications.[25] […] Progress curves were followed at 30 °C by detection of fluorescence at 320/420 nm (excitation/emission).
In all cases, for reactions involving inhibitors, the amount of reaction buffer was adjusted to 60 μL, the inhibitor added as a 10 μL aliquot, and incubated for 20 min with the enzyme prior to reaction start.

[1] = Measurement of LogD7.4 (n-octanol/PBS shake); format: physicochemical; conditions: single determination, n-octanol/PBS pH 7.4; read-out: Log D7.4
Experimental: Appendix 4. Measurement of LogD7.4
Test compounds (~1 mg) were weighed into 2 mL HPLC vials. n- Octanol (0.7 mL), pre-saturated with 10 mM phosphate buffered saline pH7.4 (PBS), was added to each vial followed b y PBS (0. 7 mL), which had been pre-saturat ed with n-octanol. The mixtures were shaken for 90 min and then centrifuged for 10 min at 4,000 rpm. The upper organic l ayer (0.2 m L) and the aqueous la yer (0.5 mL) were removed from each vial and anal yz e d b y LC -MS. Mass spect ral anal ysis was used to confirm peak identity whilst the concentration of compound was assessed by a diode arra y det ecto r. The logD for each compound was calculated b y takin g th e lo g of its concentration ratio between the oct anol and aqueous la ye r s.Given the robustness of the assa y and the fact that the info rmation was us ed onl y for gen eral guid ance, thes e measu rements were based on singlicate det erminations.

[2] = test system: nonsensitized rats challenged with a natural mixture of HDM allergens; conditions: i.t. aerosol typically 60-360 min prior to allergen challenge, unsensitised BN rats

Structure (SMILES) | IC50 (Der p 1) [nM] | IC50 (Der p 1; mean ± SE) [nM] | IC50 (human liver Cat B) [nM] | logD at 1.5 h [1] | duration of protection: trend of inhibition of eosinophil recruitment with increasing pre-treatment interval [2] | inhibition of Cat B (human liver Cat B; at 2.5 μM)
Cc1n[nH]c(C)c1C(=O)N[C@H](C(=O)N[C@@H](C)C(=O)NC(C(=O)C(=O)NCc1ccccc1)C(C)C)C(C)(C)C (mixture of isomers) [Compound 30] | 67 ± 10 | – | – | – | – | –
CC(C)C(NC(=O)[C@H](C)NC(=O)[C@H](Cc1ccccc1)NC(=O)c1ccccc1)C(=O)C(=O)NC1CCOCC1 (mixture of isomers) [Compound 33] | – | 55 ± 4 | 311 ± 6 | – | – | –
CCCC[C@H](NC(=O)[C@H](C)NC(=O)[C@H](Cc1ccccc1)NC(=O)c1ccccc1)C(=O)CN1CCCC1 [Compound 3] | – | 65 | – | – | – | –
CCCC[C@H](NC(=O)[C@H](C)NC(=O)[C@H](Cc1ccccc1)NC(=O)c1ccccc1)C(=O)C(=O)N1CCCC1 [Compound 4] | – | 997 | – | – | – | –
CC(C)[C@H](NC(=O)[C@H](C)NC(=O)[C@H](Cc1ccccc1)NC(=O)c1ccccc1)C(=O)C(=O)NCc1ccccc1 [Compound 20] | – | 12 ± 2 | 50 ± 5 | – | – | –
C[C@H](NC(=O)[C@H](Cc1ccccc1)NC(=O)c1ccccc1)C(=O)N[C@H](C(=O)C(=O)NC1CCCCC1)C(C)(C)C [Compound 21] | – | 9170 ± 880 | – | – | – | –
CC(C)[C@H](NC(=O)[C@H](C)NC(=O)[C@@H](NC(=O)c1ccccc1)C(C)(C)c1ccccc1)C(=O)C(=O)NCc1ccccc1 [Compound 23] | – | 42 ± 6 | 446 ± 11 | – | – | –
CCC[C@H](NC(=O)[C@H](Cc1ccccc1)NC(=O)c1ccccc1)C(=O)N[C@H](C(=O)C(=O)NC1CCCCC1)C(C)C [Compound 24] | – | 164 ± 24 | 67 ± 1 | – | – | –
CC(C)[C@H](NC(=O)[C@H](C)NC(=O)[C@@H](NC(=O)c1cccc2ccccc12)C(C)(C)C)C(=O)C(=O)NC1CCCCC1 [Compound 25] | – | 20 ± 3 | 721 ± 35 | 4.3 | – | –
CC(C)[C@H](NC(=O)[C@H](C)NC(=O)[C@@H](NC(=O)c1ccnc2ccccc12)C(C)(C)C)C(=O)C(=O)NC1CCCCC1 [Compound 26] | – | 13 ± 2 | 628 ± 47 | 3.5 | – | –
CC(C)[C@H](NC(=O)[C@H](C)NC(=O)[C@@H](NC(=O)c1ccnc2ccccc12)C(C)(C)C)C(=O)C(=O)NCc1ccccc1 [Compound 27, Quinoline-4-carboxylic Acid {(S)-1-[(S)-1-((S)-1-Benzylaminooxalyl-2-methyl-propylcarbamoyl)-ethylcarbamoyl]-2,2-dimethyl-propyl}-amide] | – | 18 ± 1 | 3400 ± 187 | 3.4 | rise to a peak | –
CC(C)[C@H](NC(=O)[C@H](C)NC(=O)[C@@H](NC(=O)c1ccncc1)C(C)(C)C)C(=O)C(=O)NC1CCCCC1 [Compound 29, N-{(S)-1-[(S)-1-((S)-1-Cyclohexylaminooxalyl-2-methyl-propylcarbamoyl)-ethylcarbamoyl]-2,2-dimethyl-propyl}-isonicotinamide] | – | 13 ± 1 | 231 ± 17 | 2.8 | rise to a peak | –
CC(C)[C@H](NC(=O)[C@H](C)NC(=O)[C@@H](NC(=O)C1CCN(C)CC1)C(C)(C)C)C(=O)C(=O)NCc1ccccc1 [Compound 31] | – | 19 ± 2 | 283 ± 50 | – | – | –
CC(C)[C@H](NC(=O)[C@H](C)NC(=O)[C@H](Cc1ccccc1)NC(=O)c1ccccc1)C(=O)C(=O)NC1CCN(C)CC1 [Compound 34] | – | 115 ± 14 | – | – | – | –
CC(C)[C@H](NC(=O)[C@H](C)NC(=O)[C@@H](NC(=O)c1ccccc1)C(C)(C)C)C(=O)C(N)=O [Compound 36] | 6 ± 2 | – | 20 ± 3 | 1.7 | – | –
CNC(=O)C(=O)[C@@H](NC(=O)[C@H](C)NC(=O)[C@@H](NC(=O)c1ccccc1)C(C)(C)C)C(C)C [Compound 37] | – | 24 ± 5 | 494 ± 20 | – | – | –
CC(C)[C@H](NC(=O)[C@H](C)NC(=O)[C@@H](NC(=O)c1ccccc1)C(C)(C)C)C(=O)C(=O)NCc1ccc(S(N)(=O)=O)cc1 [Compound 39] | – | 6 ± 1 | 984 ± 164 | – | – | –
CC(C)[C@H](NC(=O)[C@H](C)NC(=O)[C@@H](NC(=O)c1ccccc1)C(C)(C)C)C(=O)C(=O)NCc1ccc(C(F)(F)F)cc1 [Compound 40] | – | 47 ± 7 | – | – | – | –

Structure (SMILES) | IC50 (Der p 1) [nM] | IC50 (Der p 1; mean ± SE) [nM] | IC50 (human liver Cat B) [nM] | logD at 1.5 h [1] | duration of protection: trend of inhibition of eosinophil recruitment with increasing pre-treatment interval [2] | inhibition of Cat B (human liver Cat B; at 2.5 μM)
CC(C)[C@H](NC(=O)[C@H](C)NC(=O)[C@@H](NC(=O)c1ccccc1)C(C)(C)C)C(=O)C(=O)NCc1ccc(CN(C)C)cc1 [Compound 41] | – | 8 ± 1 | 242 ± 31 | – | – | –
CC(C)[C@H](NC(=O)[C@H](C)NC(=O)[C@@H](NC(=O)c1ccccc1)C(C)(C)C)C(=O)C(=O)N[C@H](C)c1ccccc1 [Compound 42] | – | 17 ± 2 | 459 ± 28 | – | – | –
CC(C)[C@H](NC(=O)[C@H](C)NC(=O)[C@@H](NC(=O)c1ccccc1)C(C)(C)C)C(=O)C(=O)N[C@@H](C)c1ccccc1 [Compound 43] | – | 117 ± 34 | – | – | – | –
CC(C)[C@H](NC(=O)[C@H](C)NC(=O)[C@@H](NC(=O)c1ccccc1)C(C)(C)C)C(=O)C(=O)NCc1cn[nH]c1 [Compound 44] | 11 ± 2 | – | 367 ± 34 | – | – | –
CC(C)[C@H](NC(=O)[C@H](C)NC(=O)[C@H](Cc1ccccc1)NC(=O)c1ccccc1)C(=O)C(=O)NCC(=O)N1CCN(C)CC1 [Compound 45, N-[(S)-1-((S)-1-{(S)-2-Methyl-1-[2-(4-methyl-piperazin-1-yl)-2-oxo-ethylaminooxalyl]-propylcarbamoyl}-ethylcarbamoyl)-2-phenyl-ethyl]-benzamide] | – | 14 ± 1 | 544 ± 40 | 1.3 | waned | –
CC(C)[C@H](NC(=O)[C@H](C)NC(=O)[C@H](Cc1ccccc1)NC(=O)c1ccccc1)C(=O)C(=O)NCC(=O)N1CCCCC1 [Compound 46] | 14 ± 3 | – | 81 ± 6 | 2.6 | – | –
CC(C)[C@H](NC(=O)[C@H](C)NC(=O)[C@H](Cc1ccccc1)NC(=O)c1ccccc1)C(=O)C(=O)NCC(=O)N1CCOCC1 [Compound 47, N-((S)-1-{(S)-1-[(S)-2-Methyl-1-(2-morpholin-4-yl-2-oxo-ethylaminooxalyl)-propylcarbamoyl]-ethylcarbamoyl}-2-phenyl-ethyl)-benzamide] | – | 9 ± 1 | 88 ± 10 | 1.7 | rise to a peak | –
CC(C)[C@H](NC(=O)[C@H](C)NC(=O)[C@@H](NC(=O)c1ccccc1)C(C)(C)C)C(=O)C(=O)NCC(=O)N1CCN(C)CC1 [Compound 48] | – | 14 ± 2 | > 2500 | 1 | – | no significant inhibition
CC(C)[C@H](NC(=O)[C@H](C)NC(=O)[C@H](Cc1ccccc1)NC(=O)c1ccccc1)C(=O)C(=O)NCC(=O)N1CCN(C(C)C)CC1 [Compound 49] | – | 4 ± 1 | > 2500 | 1.6 | – | –
CC(C)[C@H](NC(=O)[C@H](C)NC(=O)[C@H](Cc1ccccc1)NC(=O)c1ccccc1)C(=O)C(=O)N[C@@H](C)C(=O)N1CCN(C)CC1 [Compound 50] | – | 10 ± 1 | > 2500 | – | – | –
CC(C)[C@H](NC(=O)[C@H](C)NC(=O)[C@@H](NC(=O)c1ccccc1)C(C)(C)C)C(=O)C(=O)NCC(=O)N1CCc2ccccc2C1 [Compound 51] | 6 | – | 511 ± 88 | 3.5 | – | –
CC(C)[C@H](NC(=O)[C@H](C)NC(=O)[C@@H](NC(=O)c1ccccc1)C12CC3CC(CC(C3)C1)C2)C(=O)C(=O)NCC(=O)N1CCN(C)CC1 [Compound 54] | – | 5 | > 2500 | – | waned | –
CC(C)[C@H](NC(=O)[C@H](C)NC(=O)[C@@H](NC(=O)c1ccnc2ccccc12)C(C)(C)C)C(=O)C(=O)NCC(=O)N1CCN(C(C)C)CC1 [Compound 55] | – | 3 | > 2500 | – | – | –
CC(C)[C@H](NC(=O)[C@H](C)NC(=O)[C@@H](N1Cc2ccccc2C1=O)C(C)(C)C)C(=O)C(=O)NCc1ccc(S(N)(=O)=O)cc1 [Compound 56] | – | 3 | 3050 ± 1130 | – | – | –
CNC(=O)c1ccc(CNC(=O)C(=O)[C@@H](NC(=O)[C@H](C)NC(=O)[C@@H](N2Cc3ccccc3C2=O)C(C)(C)C)C(C)C)cc1 [Compound 57] | – | 4 | 3570 ± 850 | – | rise to a peak | –
CC(C)[C@H](NC(=O)[C@H](C)NC(=O)[C@@H](N1Cc2ccccc2C1=O)C(C)(C)C)C(=O)C(=O)NCc1ccc(CN(C)C)cc1 [Compound 58] | – | 4 | 2850 ± 662 | – | – | –
CC(C)[C@H](NC(=O)[C@H](C)NC(=O)[C@@H](NC(=O)c1cccc2ccccc12)C(C)(C)C)C(=O)C(=O)NCc1ccc(S(N)(=O)=O)cc1 [Compound 59] | – | 4 | 532 ± 136 | – | – | –
